Measurements from patent US8993526B2, “Method for counteracting the perception of sweat malodour by decreasing the function of carboxylic acid-binding olfactory receptors” (ChemCom S.A., priority 2011, dated 2015).

Tests used:
Type in all cases: cell-based
Details in all cases: tested at 1 mM, 316 μM, 100 μM; hit = luciferase activity >= median + 2 standard deviations
[1] = target: T1, OR51I2 (Homo sapiens, UniProt Q9H344, T134A); experiment: CRE-luciferase reporter assay, OR51I2 in HEK293T-RTP1A1/RTP2 cells
T1 construct: expressed in transfected cells; host or cells: HEK293T-RTP1A1/RTP2
T1 sequence (Q9H344 1-312 T134A): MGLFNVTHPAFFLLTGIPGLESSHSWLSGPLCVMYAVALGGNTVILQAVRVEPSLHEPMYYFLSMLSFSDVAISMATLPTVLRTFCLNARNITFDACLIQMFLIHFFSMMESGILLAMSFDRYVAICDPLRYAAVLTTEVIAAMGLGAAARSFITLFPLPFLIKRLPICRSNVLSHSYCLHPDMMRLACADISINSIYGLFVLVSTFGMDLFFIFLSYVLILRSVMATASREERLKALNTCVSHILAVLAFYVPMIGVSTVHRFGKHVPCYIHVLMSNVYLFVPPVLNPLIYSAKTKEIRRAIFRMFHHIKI
Method: (§1) Cells were maintained in minimal essential medium (EMEM, Lonza) containing 10% fetal bovine serum (M10). HEK293T-RTP1A1/RTP2 cells were generated by transfecting HEK293T with an expression vector containing the sequences of the chaperone proteins RTP1A1 and RTP2 and a resistance gene to puromycin, using Lipofectamine 2000. A recombinant cell population was selected by adding 10 μg/ml of puromycin into the culture medium. Monoclonal populations were further obtained by limit dilution procedure. Briefly, a cell suspension was diluted to contain 1 cell per ml and this dilution was dispatched in poly-D-lysine-coated 96 wells plates (200 μl of dilution per well). After 5 days of culture, the presence and number of cell colonies per well was checked under a phase contrast microscopic. After 5 additional days of culture, wells containing a single colony were harvested and each collected population was amplified independently.
(§2) For screening experiments, stock solutions of odorant molecules were diluted in EMEM disposed in 96-well plates. Plates containing the tested molecules (1 molecule/well) at a concentration of 2 mM, at a concentration of 632 μM and at a concentration of 200 μM were prepared.
(§3) For concentration-response analysis, serial dilutions of the tested molecules were prepared from stock solutions in EMEM plated into 96-well plates.
(§4) For the initial deorphanisation screening and dose-response analysis, a Luciferase-based gene reporter assay (Promega, Leiden, The Nederlands) was used as described in Saito et al. (2004). Briefly, cells were platted on poly-D-lysine-coated 96-well plates (BD Bioscience, Erembodegem-Dorp, Belgium) and transfected with a plasmid containing the CRE-luciferase and a plasmid containing the olfactory receptor. Sixteen hours after transfection, the culture medium was replaced by serum-free EMEM containing the tested ligand at a determined concentration. After four hours of incubation at 37° C. degree, cells were lysed and processed for luminescence measurement according to the manufacturer's protocols. Luminescene emission was recorded on a Spectra Max M5 reader (Molecular Devices, Sunnyvale, Calif.). Results were expressed as percentage of the response induced by 10 μM of the adenylate cyclase activator Forskolin.
(§5) Each molecule was tested at 3 different concentrations (1 mM, 316 μM, 100 μM). The different molecules of the tested libraries were disposed at the same concentration into 96 well plates (1 well/molecule) containing cells expressing the receptor of interest. The activity of the tested molecules was measured using the lucifierase activity as explained above. The median luciferase activity induced by the tested molecules and the associated standard deviation were determined. Putatively active molecules (hits) were defined as molecules inducing a luciferase activity higher or equal to the median+2 standard deviations.
(§6) The hits were validated by concentration-response analysis. Semi-logarithmic serial dilutions of hit molecules, from 1 mM to 316 nM, were tested on the responding ORs using the luciferase assay as described above.

[2] = target: T2, OR52E1 (Homo sapiens, UniProt Q8NGJ3, F254L/Y278C); experiment: CRE-luciferase reporter assay, OR52E1 in HEK293T-RTP1A1/RTP2 cells
T2 construct: expressed in transfected cells; host or cells: HEK293T-RTP1A1/RTP2
Method: as §1, with “independently. For screening experiments, stock solutions of odorant molecules were diluted in EMEM disposed in 96-well plates. Plates containing the tested molecules (1 molecule/well) at a concentration of 2 mM, at a concentration of 632 μM and at a concentration of 200 μM were prepared. For concentration-response analysis, serial dilutions of the tested molecules were prepared from stock solutions in EMEM plated into 96-well plates. […]” for “independently.”

[3] = target: T3, OR52B2 (Homo sapiens, UniProt Q96RD2); experiment: CRE-luciferase reporter assay, OR52B2 in HEK293T-RTP1A1/RTP2 cells
T3 construct: expressed in transfected cells; host or cells: HEK293T-RTP1A1/RTP2
T3 sequence (Q96RD2 1-323): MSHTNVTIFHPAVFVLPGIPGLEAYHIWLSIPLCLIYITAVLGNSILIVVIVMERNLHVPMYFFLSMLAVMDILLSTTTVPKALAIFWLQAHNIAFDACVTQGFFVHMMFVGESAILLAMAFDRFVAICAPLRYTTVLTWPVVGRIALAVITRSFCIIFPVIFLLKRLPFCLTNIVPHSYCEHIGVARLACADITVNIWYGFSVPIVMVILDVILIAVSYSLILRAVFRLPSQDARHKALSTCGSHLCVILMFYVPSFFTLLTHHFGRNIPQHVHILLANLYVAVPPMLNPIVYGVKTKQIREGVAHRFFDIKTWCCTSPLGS
Method: as §1, §2, §3, §4, §5, §6

[4] = target: T4, OR56A5 (Homo sapiens, UniProt P0C7T3, R311K/V104M); experiment: CRE-luciferase reporter assay, OR56A5 in HEK293T-RTP1A1/RTP2 cells
T4 construct: expressed in transfected cells; host or cells: HEK293T-RTP1A1/RTP2
T4 sequence (P0C7T3 1-313 V104M/R311K): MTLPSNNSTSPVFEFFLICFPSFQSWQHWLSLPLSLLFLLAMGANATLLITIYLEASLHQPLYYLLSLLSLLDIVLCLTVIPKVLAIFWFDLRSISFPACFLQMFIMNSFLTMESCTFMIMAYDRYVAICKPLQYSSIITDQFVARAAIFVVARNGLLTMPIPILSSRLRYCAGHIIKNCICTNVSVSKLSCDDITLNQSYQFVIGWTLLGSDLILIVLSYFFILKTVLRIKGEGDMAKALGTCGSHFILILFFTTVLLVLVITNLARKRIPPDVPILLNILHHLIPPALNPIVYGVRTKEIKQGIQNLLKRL
Method: as §1, §2, §3, §4, §5, §6

[5] = target: T5, OR52E8 (Homo sapiens, UniProt Q6IFG1); experiment: CRE-luciferase reporter assay, OR52E8 in HEK293T-RTP1A1/RTP2 cells
T5 construct: expressed in transfected cells; host or cells: HEK293T-RTP1A1/RTP2
Method: as §1, with “After 5 days of culture, the presence and number of cell colonies per well was checked under a phase contrast microscopic. After 5 additional days of culture, wells containing a single colony were harvested and each collected population was amplified independently.” left out
as §4, with “Briefly, cells were platted on poly-D-lysine-coated 96-well plates (BD Bioscience, Erembodegem-Dorp, Belgium) and transfected with a plasmid containing the CRE-luciferase and a plasmid containing the olfactory receptor.” left out, “Forskolin. […]” for “Forskolin.”

[6] = target: T6, OR52L1 (Homo sapiens, UniProt Q8NGH7, R140C/S130L); experiment: CRE-luciferase reporter assay, OR52L1 in HEK293T-RTP1A1/RTP2 cells
T6 construct: expressed in transfected cells; host or cells: HEK293T-RTP1A1/RTP2
T6 sequence (Q8NGH7 1-329 S130L/R140C): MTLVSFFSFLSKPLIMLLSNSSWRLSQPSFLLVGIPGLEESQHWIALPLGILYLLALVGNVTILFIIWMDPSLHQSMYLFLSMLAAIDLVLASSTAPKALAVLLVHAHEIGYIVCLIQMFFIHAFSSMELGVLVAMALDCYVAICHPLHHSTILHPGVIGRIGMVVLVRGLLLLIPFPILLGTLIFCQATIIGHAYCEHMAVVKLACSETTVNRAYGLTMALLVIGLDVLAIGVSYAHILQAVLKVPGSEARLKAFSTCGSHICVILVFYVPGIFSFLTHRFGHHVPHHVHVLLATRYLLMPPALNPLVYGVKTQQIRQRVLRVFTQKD
Method: as §1, with “independently. For screening experiments, stock solutions of odorant molecules were diluted in EMEM disposed in 96-well plates. Plates containing the tested molecules (1 molecule/well) at a concentration of 2 mM, at a concentration of 632 μM and at a concentration of 200 μM were prepared. For concentration-response analysis, serial dilutions of the tested molecules were prepared from stock solutions in EMEM plated into 96-well plates. […]” for “independently.”

[7] = target: T7, OR52A5 (Homo sapiens, UniProt Q9H2C5); experiment: CRE-luciferase reporter assay, OR52A5 in HEK293T-RTP1A1/RTP2 cells
T7 construct: expressed in transfected cells; host or cells: HEK293T-RTP1A1/RTP2
T7 sequence (Q9H2C5 1-314 limits assumed): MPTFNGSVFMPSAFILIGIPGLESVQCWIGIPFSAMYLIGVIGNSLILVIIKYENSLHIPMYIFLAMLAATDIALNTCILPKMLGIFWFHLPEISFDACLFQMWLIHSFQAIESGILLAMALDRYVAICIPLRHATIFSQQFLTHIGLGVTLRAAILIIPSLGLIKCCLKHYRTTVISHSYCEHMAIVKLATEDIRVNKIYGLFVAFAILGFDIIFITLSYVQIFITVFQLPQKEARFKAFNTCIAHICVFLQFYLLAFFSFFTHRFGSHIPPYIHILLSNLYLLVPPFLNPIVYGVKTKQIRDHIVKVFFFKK
Method: as §1, with “After 5 days of culture, the presence and number of cell colonies per well was checked under a phase contrast microscopic. After 5 additional days of culture, wells containing a single colony were harvested and each collected population was amplified independently.” left out
as §4, with “Briefly, cells were platted on poly-D-lysine-coated 96-well plates (BD Bioscience, Erembodegem-Dorp, Belgium) and transfected with a plasmid containing the CRE-luciferase and a plasmid containing the olfactory receptor.” left out, “Forskolin. […]” for “Forskolin.”

T2 sequence (Q8NGJ3 whole entry F254L/Y278C): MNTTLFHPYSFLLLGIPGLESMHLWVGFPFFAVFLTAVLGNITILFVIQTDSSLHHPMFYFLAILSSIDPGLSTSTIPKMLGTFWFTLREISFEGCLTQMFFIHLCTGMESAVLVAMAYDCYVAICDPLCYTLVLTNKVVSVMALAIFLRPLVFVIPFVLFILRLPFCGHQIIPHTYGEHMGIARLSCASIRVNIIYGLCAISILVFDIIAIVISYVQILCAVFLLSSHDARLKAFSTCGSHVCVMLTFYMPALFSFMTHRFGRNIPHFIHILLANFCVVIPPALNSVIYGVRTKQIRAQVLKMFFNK
T5 sequence (Q6IFG1 with tags, fused parts or gaps): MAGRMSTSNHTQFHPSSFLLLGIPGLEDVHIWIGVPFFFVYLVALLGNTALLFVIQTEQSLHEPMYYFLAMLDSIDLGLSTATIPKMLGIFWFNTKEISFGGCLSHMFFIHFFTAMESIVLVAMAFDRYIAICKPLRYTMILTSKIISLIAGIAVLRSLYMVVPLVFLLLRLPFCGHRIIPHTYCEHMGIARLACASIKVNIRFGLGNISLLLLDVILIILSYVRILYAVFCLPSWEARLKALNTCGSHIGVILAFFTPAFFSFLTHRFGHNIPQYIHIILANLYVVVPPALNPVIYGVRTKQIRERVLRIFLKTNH

Structure (SMILES)	activation of OR51I2 (hit in luciferase assay) [1]	activation of OR52B2 (hit in luciferase assay) [3]	activation of OR56A5 (hit in luciferase assay) [4]	other results
CCCCC(C)C(=O)O (stereo not shown) [2-methylhexanoic acid]	activation	–	–	–
CCCC(=O)O [butanoic acid]	activation	–	–	activation of OR52E1 (hit in luciferase assay) [2]: activation
CCCC(C)CC(=O)O (stereo not shown) [3-methylhexanoic acid]	activation	–	–	–
CCCCCCCC(=O)O [octanoic acid]	–	activation	activation	–
CCCC(C)(O)CC(=O)O (stereo not shown) [3-hydroxy-3-methylhexanoic acid]	–	–	–	activation of OR52E8 (hit in luciferase assay) [5]: activation
CCCCC(=O)O [pentanoic acid]	activation	–	–	activation of OR52L1 (hit in luciferase assay) [6]: activation
CCC/C(C)=C/C(=O)O [(E)-3-methyl-2-hexanoic acid]	activation	–	–	–
O=C(O)c1ccccc1 [benzoic acid]	activation	–	–	–
CCCCC(CC)CCC(=O)O (stereo not shown) [4-ethyloctanoic acid]	–	–	–	activation of OR52A5 (hit in luciferase assay) [7]: activation
CCCCCCCCC(=O)O [nonanoic acid]	–	activation	activation	–
CCCCCCCCCC(=O)O [decanoic acid]	–	activation	activation	–
CCCCCC(=O)O [hexanoic acid]	activation	activation	activation	–
CCCCCCC(=O)O [heptanoic acid]	–	activation	activation	–
CC(C)CC(=O)O [isovaleric acid]	activation	–	–	–
CCCCCCCCCCC(=O)O [undecanoic acid]	–	activation	activation	–
CCCCCC(C)C(=O)O (stereo not shown) [2-methylheptanoic acid]	–	–	activation	–
